Values quoted from earlier work as cited in patent publication US20140199405A1, “METHOD FOR TREATING CANCER BASED ON MUTATION STATUS OF K-RAS” (priority 2013, published 2014).

What was measured:
[1] = test system: locally advanced pancreatic cancer; details: patients with locally advanced pancreatic cancer
pancreatic cancer = details: combination versus gemcitabine monotherapy

| SMILES | median overall survival [1] [months] | median time to disease progression [1] [months] | median overall survival (pancreatic cancer) [months] | median progression free survival (pancreatic cancer) [months] |
| --- | --- | --- | --- | --- |
| O=c1[nH]cc(F)c(=O)[nH]1 [5-FU, 5-fluororuracil] | 4.2 | 0.9 |  |  |
| Nc1ccn([C@@H]2O[C@H](CO)[C@@H](O)C2(F)F)c(=O)n1 [gemcitabine] | 5.7 | 2.1 | 6.0 | 3.5 |
